Laboratory results as given in paper PMC5947527 (Chemical Science, 2015).
“Also recorded” adds a separate entry of the source. Residues, ends and D or L forms follow the SMILES beside them. *: point of attachment. NBD = O=[N+]([O-])c1ccc(*)c2nonc12; Ahx = NCCCCCC(=O)O

Key:
[1] = tested on: Methicillin sensitive S. aureus, K. pneumoniae and P. aeruginosa; assay: Bacterial affinity: fluorescence retention following a PBS wash (confocal); format: cell-based; conditions: for bacterial affinity (Table 1, effect on efficacy): Table 1 summary
Method: Three compounds (UBI-3, UBI-5 and UBI-10) were assessed for further evaluation. […] In vitro affinity of bacterial binding was assessed by incorporating a wash step in the live confocal imaging protocol with a panel of bacteria with the ‘wash-off’ representing a surrogate indicator of Smartprobe-bacterial labelling affinity. […] UBI-10, therefore, was assessed further in a clinically relevant biological system.
Figure S4. Quantified fluorescence of confocal microscopy images of the compounds UBI-3, UBI-5 and UBI-10 on three bacteria and fluorescence retention following a PBS wash. Quantification of fluorescence intensity of (A) Methicillin sensitive S. aureus, (B) K. pneumoniae and (C) and P. […]
intensity following a PBS wash. […]
(§1) Confocal Analysis and Fluorescence Quantification: 8-Well Lab-Tek II Confocal Chambers (VWR, PA, USA) were coated in fibronectin (for neutrophil experiments) or poly-d-lysine (for bacteria) at 37 °C for 20 minutes, then washed in PBS prior to bacterial innoculation. For co-culture assays, neutrophils were seeded on fibronectin coated wells at 1 x 10^5 neutrophils per well for 20 minutes and non-adherent neutrophils aspirated. Bacteria were added to each chamber to a final concentration of 0.5 OD595 nm with the desired final concentration of Smartprobe. A laser-scanning confocal imaging system (LSM510; Carl Zeiss, Jena, Germany), incorporating an upright Axioskop FS2 microscope (63× objective) was used for image acquisition and processing. Exposure to 488 nm light was limited to 5% of the maximum laser power in order to minimize toxicity. ‘Green’ fluorescence (for FAM and NBD) was excited with a dedicated 488 nm line and emitted light detected with meta detector (500-530 nM).
(§2) Syto nuclear and dyes were excited with a dedicated 543 nm line, and emitted light detected with meta detector (570-610 nM). Fields of view were chosen based on the counterstain and at least three fields of view were recorded for each condition. For affinity assays, following initial imaging, the fluid was aspirated and two gentle washes with PBS were performed. The chamber was re-imaged on confocal.
(§3) Analysis was with ImageJ (version 1.46r, National Institutes of Health, USA); the Syto channel was automatically thresholded (MaxEntropy, with a set threshold 0-47) and an ROI generated from this. The […]
(§4) mean fluorescence intensity on the probe channel within this ROI was quantified. Data presented represents the mean of three experiments, from each of which three separate fields of view were assessed. All experiments were performed at least three times unless otherwise stated and results expressed as mean ± SEM. Data was analysed by unpaired t-test and significance was determined as p<0.05 (GraphPad Prism version 5.01 for Windows, GraphPad Software, San Diego California USA).
Ex vivo Human Lung and FCFM Procedure: Human lung samples were obtained from patients undergoing surgical resection for lung carcinoma. All images were obtained on sections of normal lung away from the cancerous growth. Informed consent was obtained and the study was approved by the Regional Ethics Committee. Samples were taken fresh from the operating theatre, dissected into 4mm sections and placed in wells of 96 well plate. Bacteria were pre-labelled with Smartprobe or Calcein AM and co-cultured in the well with a maximum volume of 100µl. […]

[2] = tested on: methicillin-sensitive Staphylococcus aureus; assay: Confocal labelling of MSSA with quantified fluorescence; format: cell-based; conditions: for concentration dependence of bacterial labelling: 0.5 μM to 50 μM, methicillin sensitive S. aureus; for bacterial labelling (fluorescence compared with UBI-3): MSSA, 10 μM, fluorescence normalized to UBI-3, mean ± SEM, n ≥ 3
Method: Fig. 6 Confocal Images of compounds UBI-3 to 9 with quantified fluorescence. Panels show methicillin-sensitive Staphylococcus aureus incubated with UBI-3 to 9 (all 10 μM) with quantification of bacterial fluorescence normalized to UBI-3 (bars represent mean (±SEM), n ≥ 3, ns = not significant, *** = p < 0.001, * = p < 0.05, scale bar = 10 μm).
Fig. 8 Confocal images and quantification of cyclic variants when compared to UBI-3. Panels show methicillin-sensitive Staphylococcus aureus incubated with cyclic UBI compounds (all 10 μM) with quantification of bacterial fluorescence normalized to UBI-3 (bars represent mean (±SEM), n ≥ 3, ns = not significant, ** = p < 0.01, scale bar = 10 μm).
Bacterial Culture and Labelling: Bacteria used were K. pneumoniae (ATCC BAA1706) ATCC, E. coli (ATCC 25922) ATCC, A. baumannii (J3433) Clinical Isolate, P. aeruginosa (J3284) Clinical Isolate, Methicillin Resistant S. aureus (MRSA) (ATCC25923) ATCC and Methicillin Sensitive S. aureus (MSSA) (ATCC 252) ATCC. All bacteria were grown on Lysogeny broth (LB) agar and from a single bacterial colony placed into 10ml of LB and incubated at 37°C for 16 hours in an orbital shaker.
Cultures were centrifuged at 4000rpm for 5 minutes and the pellet resuspended in 1ml phosphate buffered saline (PBS, Life Technologies). Following three further washes in PBS the cultures were reconstituted to 1 OD595 nm. Bacteria were counterstained with 5µM Syto 82 orange fluorescent nucleic acid stain (Invitrogen, CA, USA) in a shaking heat block at 37 °C for 20 minutes. For FCFM bacteria were stained with 1µM Calcein AM (Sigma, MO, USA) for 30 minutes at 37 °C. Counterstained bacteria were washed in PBS to remove excess dye. […]
as §1, §2, §3, §4
Ex vivo Human Lung and FCFM Procedure: Human lung samples were obtained from patients undergoing surgical resection for lung carcinoma. All images were obtained on sections of normal lung […]

[3] = tested on: P. aeruginosa; assay: Live confocal imaging of bacteria, signal to noise of FAM vs NBD label; format: cell-based; conditions: confocal microscopy, 10 μM
Excerpt: UBI29–41 was firstly conjugated to carboxyfluorescein (UBI-1) and used to image bacteria with analysis via confocal microscopy. This yielded insufficient signal to noise to distinguish bacteria from background fluorescence (Fig. 1). We therefore took advantage of the environmental reporting properties of the fluorophore 7-nitrobenz-2-oxa-1,3-diazole (NBD)[12] and hypothesized there would be fluorescence amplification of NBD in the apolar hydrophobic bacterial membrane.
Fig. 1 NBD–UBI enables live confocal imaging of bacteria. […]
(§5) Confocal Analysis and Fluorescence Quantification: 8-Well Lab-Tek II Confocal Chambers (VWR, PA, USA) were coated in fibronectin (for neutrophil experiments) or poly-d-lysine (for bacteria) at 37 °C for 20 minutes, then washed in PBS prior to bacterial innoculation. […] Exposure to 488 nm light was limited to 5% of the maximum laser power in order to minimize toxicity. ‘Green’ fluorescence (for FAM and NBD) was excited with a dedicated 488 nm line and emitted light detected with meta detector (500-530 nM).
(§6) Syto nuclear and dyes were excited with a dedicated 543 nm line, and emitted light detected with meta detector (570-610 nM). Fields of view were chosen based on the counterstain and at least three fields of view were recorded for each condition. […]
mean fluorescence intensity on the probe channel within this ROI was quantified. […]

[4] = tested on: methicillin-sensitive Staphylococcus aureus (MSSA), Pseudomonas aeruginosa and Klebsiella pneumoniae; assay: Confocal bacterial labelling, UBI-2 vs UBI-3 on a panel of bacteria; format: cell-based; conditions: fluorescence normalised to UBI-2, mean ± SEM, n ≥ 3
Method: Fig. 3 UBI-3 retains specificity and sensitivity for bacterial labelling. […] Panels show bacteria labelled with either UBI-2 or UBI-3 with quantification of fluorescence (values normalised to UBI-2) (Bars represent mean, error bars represent standard error of mean, n ≥ 3, ns = not significant, scale bar = 10 μm). (B) Quantification from confocal images of UBI-3 (10 μM) imaging a panel of bacteria (statistical analyses shown compared to unlabelled bacteria, n ≥ 3 for each bacteria, *** = p < 0.001). […] [MRSA: methicillin-resistant Staphylococcus aureus, MSSA: methicillin-sensitive Staphylococcus aureus]. […]
as §5, §6

[5] = Chemical stability on storage in phosphate buffered saline at 37 °C (HPLC); format: physicochemical; conditions: 1 mg mL–1 in PBS, day 0 vs day 3, HPLC, detection at 380 nm
Method: This modification is particularly of relevance due to the expected in vivo inflammatory oxidative environment within an infected pneumonic lung due to infiltrating host inflammatory cells such as neutrophils,[13] and therefore all subsequent modifications incorporated Nle in place of Met.
HPLC chromatograms (gradient acetonitrile + 0.1% formic acid/water + 0.1% formic acid from 5/95 to 95/5 over 10 min, then isocratic for 4 min; detection at 380 nm). UBI-2 (1 mg mL^–1 in PBS, upper panels) and UBI-3 (1 mg mL^–1 in PBS, lower panels) at (A) day 0 and (B) day 3 after incubation at 37 °C.

Row | Molecule | bacterial affinity (Table 1, effect on efficacy) [1] | concentration dependence of bacterial labelling [2] | bacterial labelling (fluorescence compared with UBI-3) [2] | fluorescence following labelling and a PBS wash ([1]; 10 µM, two gentle PBS washes, three bacterial species, n=3) | signal to noise for bacterial labelling [3] | bacterial labelling, Met vs Nle variant [4] | chemical stability in PBS at 37 °C [5]
1 | NBD-Ahx-Thr-Gly-Arg-Ala-Lys-MeArg-MeArg-Nle-Gln-Tyr-Asn-MeArg-MeArg-NH2 [UBI-4, NBD-UBI with N-Methylarginine (MeArg) insertion based on MALDI-TOF analysis of cleavage peptides] | poor bacterial affinity | concentration dependent increase in bacterial fluorescence | same intensity as UBI-3 |  |  |  | 
2 | NBD-Ahx-Thr-Gly-Arg-Ala-Lys-Arg-MeArg-Nle-Gln-Tyr-Asn-Arg-Arg-D-Phe-D-Val-NH2 [UBI-5, NBD-UBI with D-amino acids (D-Val and D-Phe) incorporated at the C-terminus] | poor bacterial affinity | concentration dependent manner | same intensity as UBI-3 | significantly lower fluorescence |  |  | 
3 | CSCC[C@H](NC(=O)[C@H](CCCNC(=N)N)NC(=O)[C@H](CCCNC(=N)N)NC(=O)[C@H](CCCCN)NC(=O)[C@H](C)NC(=O)[C@H](CCCNC(=N)N)NC(=O)CNC(=O)[C@@H](NC(=O)CCCCCNc1ccc([N+](=O)[O-])c2nonc12)[C@@H](C)O)C(=O)N[C@@H](CCC(N)=O)C(=O)N[C@@H](Cc1ccc(O)cc1)C(=O)N[C@@H](CC(N)=O)C(=O)N[C@@H](CCCNC(=N)N)C(=O)N[C@@H](CCCNC(=N)N)C(N)=O [UBI-2] ({NBD-Ahx}-TGRAKRRMQYNRR-NH2) |  |  |  |  | good signal to noise; also recorded: higher signal to noise for bacterial labelling over UBI-1 | same fluorescence intensity | underwent chemical degradation; also recorded: Unstable at 37 °C in PBS
